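48-hour exposure; five concentrations; linearly interpolated endpoints. TGI marks complete inhibition of growth.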 Where only a bound is given, the exact number is not on record here.

Among the test systems are OVCAR-4 ovarian; RXF 393 renal; IGROV1 ovarian; CAKI-1 renal; HCT-116 colon; MALME-3M melanoma; KM12 colon; MDA-N; UACC-62 melanoma; SF-268 CNS; UO-31 renal; MDA-MB-231 breast; NCI-H460 lung; MDA-MB-435; OVCAR-5 ovarian.
Holding throughout (assay): NCI-60 cell line screen, 48 h

For `CN1C/C(=C\c2cccs2)C(O)/C(=C/c2cccs2)C1` (stereo not drawn), the TGI with OVCAR-4 ovarian, with RXF 393 renal, in the assay with IGROV1 ovarian, with CAKI-1 renal, in the assay with HCT-116 colon and in the assay with MALME-3M melanoma was > 100 µM each time. Besides, the TGI in the assay with KM12 colon, in the assay on MDA-N, in the assay with UACC-62 melanoma, in the assay on SF-268 CNS, in the assay on UO-31 renal and with MDA-MB-231 breast was > 100 µM in each case. In addition, the TGI in the assay on NCI-H460 lung, with MDA-MB-435 and with OVCAR-5 ovarian was > 100 µM each time.
With `O=C(c1nc2ccc([N+](=O)[O-])cc2[nH]c1=O)C(O)c1ccc2c(c1)OCO2` (stereo not drawn), the TGI in the assay on OVCAR-4 ovarian, with RXF 393 renal, with IGROV1 ovarian, in the assay with CAKI-1 renal, in the assay on HCT-116 colon and in the assay with MALME-3M melanoma was > 100 µM in each case. Also, the TGI with KM12 colon is > 93 µM; in the assay on MDA-N, > 100 µM; in the assay on UACC-62 melanoma, > 100 µM; in the assay with SF-268 CNS it was > 100 µM; in the assay on UO-31 renal, > 100 µM; with MDA-MB-231 breast, > 100 µM. The TGI with NCI-H460 lung, with MDA-MB-435 and with OVCAR-5 ovarian was > 100 µM each time.
With `O=[N+]([O-])c1ccc2c(c1)N([O-])C1(CCCCC1)[N+]2=O`, the TGI was 23.7 µM in the assay with OVCAR-4 ovarian; 32.4 µM in the assay on RXF 393 renal; 36.9 µM in the assay on IGROV1 ovarian; 34.9 µM in the assay with CAKI-1 renal; 33.3 µM in the assay with HCT-116 colon; 28.7 µM with MALME-3M melanoma. For the same molecule, the TGI in the assay with KM12 colon stood at 42.4 µM; in the assay on MDA-N, 31.8 µM; in the assay on UACC-62 melanoma, 37.1 µM; in the assay with SF-268 CNS, 69.4 µM; with UO-31 renal, 33.7 µM; in the assay with MDA-MB-231 breast, 34.4 µM. The values for the TGI in the assay with NCI-H460 lung, in the assay with MDA-MB-435 and in the assay with OVCAR-5 ovarian were 37 µM, 30.9 µM and 34.7 µM, respectively.
In the case of `NC(N)=NC(N)=Nc1ccc(S(=O)(=O)O)cc1`, the TGI in the assay on OVCAR-4 ovarian, with RXF 393 renal, in the assay on IGROV1 ovarian, with CAKI-1 renal, with HCT-116 colon and with MALME-3M melanoma was > 100 µM in each case. The TGI with KM12 colon, in the assay on MDA-N, in the assay with UACC-62 melanoma, in the assay on SF-268 CNS, in the assay on UO-31 renal and in the assay with MDA-MB-231 breast was > 100 µM each time. Besides, the TGI in the assay on NCI-H460 lung, in the assay with MDA-MB-435 and in the assay with OVCAR-5 ovarian was > 100 µM each time.
For the molecule `Cc1cc2/c(=C\c3ccc(N(C)C)cc3)c3ccccc3n2[n+]1C`, the TGI with OVCAR-4 ovarian came to 10.3 µM; with RXF 393 renal it was 10.4 µM; in the assay on IGROV1 ovarian it was 6.76 µM; in the assay with CAKI-1 renal it was 22.3 µM; in the assay with HCT-116 colon, 2.55 µM; in the assay on MALME-3M melanoma it was 2.98 µM. Also, the TGI in the assay on KM12 colon was found to be 5.54 µM; with MDA-N, 1.58 µM; in the assay with UACC-62 melanoma, 2.95 µM; in the assay on SF-268 CNS, 6.57 µM; in the assay on UO-31 renal, 15.3 µM; with MDA-MB-231 breast it was 3.66 µM. In addition, the TGI came to 2.02 µM in the assay with NCI-H460 lung, 1.84 µM in the assay on MDA-MB-435 and 21.3 µM in the assay with OVCAR-5 ovarian.
In the case of `O=C(/C=C/c1ccc(-c2ccccc2)cc1)NCc1ccc(C(=O)NCc2ccccc2)cc1`, the TGI is > 100 µM in the assay on OVCAR-4 ovarian; 67.3 µM in the assay with RXF 393 renal; > 100 µM in the assay with IGROV1 ovarian; > 100 µM in the assay on CAKI-1 renal; > 100 µM in the assay on HCT-116 colon; > 100 µM in the assay with MALME-3M melanoma. The TGI in the assay with KM12 colon, in the assay on MDA-N, in the assay on UACC-62 melanoma, in the assay on SF-268 CNS, in the assay on UO-31 renal and with MDA-MB-231 breast was > 100 µM throughout. The TGI in the assay on NCI-H460 lung, in the assay with MDA-MB-435 and in the assay on OVCAR-5 ovarian was > 100 µM each time.
As for `CCOC(=O)c1[nH]c(-c2[nH]c(-c3[nH]c(-c4[nH]c(C(=O)OCC)c(C)c4C(=O)OCC)c(C(=O)OCC)c3C)c(C)c2C(=O)OCC)c(C(=O)OCC)c1C`, the TGI in the assay with OVCAR-4 ovarian, with RXF 393 renal, in the assay on IGROV1 ovarian, in the assay on CAKI-1 renal, in the assay with HCT-116 colon and with MALME-3M melanoma was > 100 µM each time. Besides, the TGI in the assay on KM12 colon, in the assay with MDA-N, in the assay on UACC-62 melanoma, in the assay with SF-268 CNS, in the assay on MDA-MB-231 breast and with NCI-H460 lung was > 100 µM throughout. Also, the TGI in the assay with MDA-MB-435 and in the assay on OVCAR-5 ovarian was > 100 µM each time.
As to `COC(CN(C(C)=O)C1CCC2(SCCS2)c2[nH]c3ccccc3c21)OC` (stereo not drawn), the TGI in the assay with OVCAR-4 ovarian, in the assay with RXF 393 renal, in the assay on IGROV1 ovarian, in the assay with CAKI-1 renal, in the assay on HCT-116 colon and in the assay with MALME-3M melanoma was > 100 µM throughout. Moreover, the TGI with KM12 colon, in the assay on MDA-N, with SF-268 CNS, in the assay with UO-31 renal, with MDA-MB-231 breast and in the assay on NCI-H460 lung was > 100 µM each time. For the same molecule, the TGI in the assay on MDA-MB-435 and with OVCAR-5 ovarian was > 100 µM in each case.
On to `Cc1nc(C)c(N2CCN(S(=O)(=O)N(Cc3ccccc3)Cc3ccccc3)CC2)c(=O)[nH]1`, for which the TGI was > 100 µM in the assay on OVCAR-4 ovarian; 38 µM with RXF 393 renal; > 100 µM with IGROV1 ovarian; > 47.9 µM with CAKI-1 renal; > 100 µM in the assay on HCT-116 colon; > 100 µM in the assay on MALME-3M melanoma. The TGI in the assay on KM12 colon is > 100 µM; in the assay with MDA-N, > 100 µM; in the assay on UACC-62 melanoma, > 100 µM; in the assay on SF-268 CNS, > 75 µM; in the assay on UO-31 renal, > 100 µM; in the assay with MDA-MB-231 breast, > 64.5 µM. For the same molecule, the TGI with NCI-H460 lung, in the assay on MDA-MB-435 and in the assay on OVCAR-5 ovarian was > 100 µM throughout.

These data come from PubChem BioAssay (NCI).
